Here are results for 2 molecules from patent US8137919B2 (Montefiore Medical Center, priority 2008, dated 2012).

Type in all cases: cell-based
For experiment [1], the system named is GEO, LIM1215, and SW403 (cetuximab sensitive cell lines). The experiment in a line: Proliferative response to EGF, S-phase. The settings on record: 24 h post EGF treatment (0.5 ng/ml), serum-free. Here is the method: (§1) For each cell line, one plate was harvested for determination of t=0 absorbance values. Viable cells were determined 72 h post-treatment using the MTT assay by measurement of absorbance at 570 nm. The relative rate of cell growth for each cell line was factored into the analysis by subtracting the absorbance at time zero from both the control and treatment groups. All the experiments were replicated a minimum of 3 times. For determination of sensitivity to EGF, cells were serum starved for 4 h then treated with 0, 0.5 or 5 ng/ml EGF for 24-72 h.
(§2) To test this, the proliferative response of the 3 most cetuximab-sensitive and 3 most cetuximab-resistant cell lines to exogenous EGF-treatment was examined under serum-free conditions (FIG. 6). […] These findings indicate that a subset of colon tumors exist that are dependent upon ligand activation of EGFR for their growth, and it is these cell lines that are growth inhibited by blockade of ligand binding to the EGFR.

Experiment [2] has as its system LIM2405, HCT15, and HCT116 (cetuximab resistant cell lines). As to the kind of experiment: Proliferative response to EGF, S-phase. Conditions: 24 h post EGF treatment (0.5 ng/ml), serum-free. How it is done: as §1, §2
In experiment [3] the test system is cetuximab sensitive and resistant cell lines. The experiment in a line: Growth response to EGF, MTT assay. Conditions: 0.5 or 5 ng/ml EGF. Here is the method:
Cell growth was assayed by MTT assay. Values shown are mean±SEM from a representative experiment, #p<0.05. Experiments were repeated 3 separate times.
as §1

Experiment [4] has as its system SW403 cells. The experiment in a line: Apoptosis, PI staining and FACS. Conditions: 5 microMolar, 72 hours treatment. Here is the method:
FIG. 4. […] Cell cycle distribution and apoptosis was assessed by PI staining and FACS analysis. Values shown are mean±SEM, n=3, #P<0.05.

EGF: EGFR activator, EGFR ligand: the results for the “change in S-phase” value in experiment [1] and in experiment [2] were “significant increase” and “not”, respectively. For the same molecule, the “cell growth (MTT)” value in experiment [3] is recorded as “preferentially increased growth of the cetuximab sensitive cell lines”.
On to `O=c1[nH]cc(F)c(=O)[nH]1` [5FU, 5-fluoruracil], for which, in experiment [4], the apoptosis entry is “approximately 50%”.
